Experimental data taken from article PMC13372681, “A natural depsipeptide antibiotic binds the E-site of the bacterial ribosome” (Nature, 2026).
Values after ≈ are worked out from the molar mass of the structure shown. Where two headings read alike, the source gives them in different places. Where a SMILES comes first, the peptide text is derived from it. Bridges are numbered along the chain shown (N, C = ends). [ ]: non-standard residue; d: D form. dOrn = NCCC[C@@H](N)C(=O)O

Columns and labels:
[1] = tested on: M. avium subsp. avium ATCC 25291; details: Middlebrook 7H9 + 10% OADC + 0.05% Tween-80
[2] = tested on: Bifidobacterium breve GC96; experiment: MIC, anaerobic gut bacteria; assay type: cell-based; details: gut isolate, BHI + L-cysteine, haemin, vitamin K, 37 °C
[3] = tested on: Lactobacillus plantarum GC4; experiment: MIC, anaerobic gut bacteria; assay type: cell-based; details: gut isolate, BHI + L-cysteine, haemin, vitamin K, 37 °C

For C[C@@H](O)[C@@H]1NC(=O)[C@@H](CCCNC(=N)N)NC(=O)[C@@H](CCCNC(=N)N)NC(=O)[C@@H](CC(N)=O)NC(=O)[C@@H](NC(=O)[C@@H](Cc2ccccc2)NC(=O)[C@@H](CCCN)NC(=O)[C@H](N)CCCNC(=N)N)[C@@H](C)OC(=O)[C@H](Cc2c[nH]cn2)NC1=O [MKM-A, manikomycin] (H-[dR][dOrn][dF]T[dN][dR][dR]TH; ester 4-C), the MIC [1] was 32 µg/mL, the MIC (E. coli C0617; C0617) was 8 µg/mL (≈ 6.76 µM) and the MIC (E. coli C0617; broth microdilution, Ca+ MHB Medium, MDR clinical isolate) was 32 µg/mL (≈ 27 µM). For the same compound, the MIC [2] was 256 µg/mL, the MIC (Bacillus subtilis 168) was greater than 64 µg/mL and the MIC [3] was greater than 256 µg/mL.
